SMILES strings stand for the structures.

The test deals with T1, CRTH2 receptor (Homo sapiens, UniProt Q9Y5Y4).
T1 sequence (Q9Y5Y4 1-395): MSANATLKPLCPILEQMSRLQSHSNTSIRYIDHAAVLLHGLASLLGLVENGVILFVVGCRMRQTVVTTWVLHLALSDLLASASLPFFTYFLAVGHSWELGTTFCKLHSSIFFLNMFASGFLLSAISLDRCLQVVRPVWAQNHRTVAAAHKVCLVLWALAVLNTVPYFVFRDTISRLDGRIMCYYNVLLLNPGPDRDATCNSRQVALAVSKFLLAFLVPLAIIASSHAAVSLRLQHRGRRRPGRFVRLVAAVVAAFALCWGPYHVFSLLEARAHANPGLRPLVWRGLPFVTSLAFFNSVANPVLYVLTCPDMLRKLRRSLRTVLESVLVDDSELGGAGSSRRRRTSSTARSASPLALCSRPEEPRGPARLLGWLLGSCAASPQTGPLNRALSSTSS
The test can be described thus: CRTH2 radioligand binding assay ([3H]-PGD2 displacement, SPA). The following applies: HEK cell membranes expressing the CRTH2 receptor, 1 nM [3H]-PGD2. On the procedure: Radioligand Binding Assay
The receptor binding assay is performed in a final volume of 200 μL binding buffer [10 mM BES (pH 7.4), 1 mM EDTA, 10 mM manganese chloride, 0.01% BSA] and 1 nM [^3H]-PGD2 (Amersham Biosciences UK Ltd). Ligands are added in assay buffer containing a constant amount of DMSO (1% by volume). Total binding is determined using 1% by volume of DMSO in assay buffer and non-specific binding is determined using 10 μM of unlabeled PGD2 (Sigma). Human embryonic kidney (HEK) cell membranes (3.5 μg) expressing the CRTH2 receptor are incubated with 1.5 mg wheatgerm agglutinin SPA beads and 1 nM [^3H]-PGD2 (Amersham Biosciences UK Ltd) and the mixture incubated for 3 hours at room temperature. Bound [^3H]-PGD2 is detected using a Microbeta TRILUX liquid scintillation counter (Perkin Elmer). Compound IC50 value is determined using a 6-point dose response curve in duplicate with a semi-log compound dilution series. IC50 calculations are performed using Excel and XLfit (Microsoft), and this value is used to determine a Ki value for the test compound using the Cheng-Prusoff equation.

What is called IC50 is the concentration at which inhibition is half-maximal. A higher IC50 goes with lower potency. The molecule `CCc1nc2c(F)ccc(OCC(=O)O)c2c(OC(F)F)c1Cc1ccc(-c2ncco2)cc1` [Example 2, [4-difluoromethoxy-2-ethyl-8-fluoro-3-(4-oxazol-2-ylbenzyl)quinolin-5-yloxy]acetic acid] returned a 50% inhibitory concentration (IC50) of 6.3 nM.
The value for `CCc1nc2c(F)ccc(OCC(=O)O)c2c(OC(F)F)c1Cc1ccc(-n2cccn2)cc1` [Example 1, [4-difluoromethoxy-2-ethyl-8-fluoro-3-(4-pyrazol-1-ylbenzyl)quinolin-5-yloxy]acetic acid] was 5.4 nM.
